In brackets after ≈: the same amount, converted by molar mass.
Key:
Vero [1] = assay: Selectivity index as ratio of IC50 over MIC; format: functional
Vero [2] = assay: Inhibition of mammalian Vero cell viability at 6.25 and 62.5 ug/ml by MTT assay; format: functional, cell-based; details: Chlorocebus sabaeus
[3] = test system: Mycobacterium tuberculosis; assay: Antibacterial activity against Mycobacterium tuberculosis H37Rv; format: functional

Row | SMILES | Selectivity index (Vero [1]) | IC50 (Vero [2]) | MIC [3]
1 | C/C(=N/NC(=O)c1ccncc1)c1ccc(N/C(S)=N/c2ccc(F)cc2)cc1 | >312 | > 153 µM | 0.49 µM (≈ 0.2 µg/mL)
2 | C/C(=N/NC(=O)c1ccncc1)c1ccc(N/C(S)=N/c2ccc(C)cc2)cc1 | – | 155 µM | 1.93 µM (≈ 0.779 µg/mL)
3 | CCOc1ccc(N/C(S)=N\c2ccc(/C(C)=N\NC(=O)c3ccncc3)cc2)cc1 | – | 144 µM | 0.89 µM (≈ 0.386 µg/mL)
4 | C/C(=N/NC(=O)c1ccncc1)c1ccc(N/C(S)=N/c2ccccc2)cc1 | – | 160 µM | 4 µM (≈ 1.56 µg/mL)
5 | C/C(=N/NC(=O)c1ccncc1)c1ccc(N/C(S)=N/c2ccc(Br)cc2)cc1 | – | 133 µM | 1.66 µM (≈ 0.778 µg/mL)
6 | NNC(=O)c1ccncc1 [ISONIAZID] | – | > 455 µM | 1.46 µM (≈ 0.2 µg/mL)
7 | COc1ccc(N/C(S)=N\c2ccc(/C(C)=N\NC(=O)c3ccncc3)cc2)cc1 | – | > 149 µM | 0.47 µM (≈ 0.197 µg/mL)
